Measured values from patent publication US6716635B2, “Method for identifying regulators of protein-advanced glycation end product (protein-AGE) formation” (University of Kentucky Research Foundation, priority 2000, dated 2004).

Key:
[1] = system: histone H1 (glycation by ADP-ribose); assay: AGE-fluorescence screening of glycation inhibitors, histone H1 + ADP-ribose, 96 well microtiter plates; type: biochemical, calf; conditions: for inhibition of AGE-fluorescence, in words: 1 to 10 mM, 5 days; for AGE-fluorescence (day 5): 5 days incubation; for % inhibition: AGE-fluorescence day 5; for AGE-fluorescence (day 0): value (spread)
Procedure: A 96-well, microtiter plate was used to carry out 48 reactions in duplicate. […] A second pair of wells contains the reactants and the known glycation inhibitor aminoguanidine, and functions as a positive control. Histone H1 is commercially available, and can be prepared following the procedures set out in Johns, et al., Biochem J. 92:55-59(1964), which is incorporated by reference herein.
The reaction system is 50 mM potassium phosphate buffer, at pH 7.4 to which 1.5 mg/ml histone H1 and 1.0 mM ADP-ribose were added. Reaction volume was 300 ul. AGE-fluorescence was measured over time, with incubation at 37° C., at 355 nm (ex) and 405 nm (em). Upon comparison to the control, a test compound was deemed potentially positive if AGE-fluorescence was suppressed.
The histone H1 (1.5 mg/ml) was combined with 1 mM ADP-ribose, in […] KH2PO4 buffer (pH 7.4, 37° C., 0.015% NaN3 added, to inhibit microbial growth). This reaction mixture was added, to 96 well microtiter plates. Test compounds were added to the reaction mixture, at concentrations ranging from 1 to 10 mM, in reaction volumes of 300 ul. Texts were run in duplicate.
Accumulated protein damage was determined by measuring AGE-fluorescence, at wavelengths (λex=370 nm; λ em=440 nm. The fluorescence is suppressed in the presence of compounds with inhibitory activity. Assays were read on a conventional microtiter plate, with a filter setting that approached the above conditions (λ ex: 355 nm, λ […]: 405 nm), which is in the range of the broad excitation/emission maxima of AGE compounds.
The fluorescence was measured at the beginning, and after 5 days of incubation.
The known glycation inhibitor aminoguanidine was used as a control.

[2] = system: histone H1 (cross linking by ADP-ribose); assay: glycation induced cross linking of histone H1, 12% SDS-PAGE, silver staining; type: biochemical, calf; conditions: aliquots of 5 day incubation mixtures
Procedure: This example describes a secondary screening, to further evaluate compounds which were deemed positive following the assays of examples 1 and 2. Specifically, it will be recalled that each sample was tested in two wells, one of which was tested in example 2, supra. The sample not used was analyzed, via 12% SDS-PAGE, followed by silver staining, in order to visualize protein cross-linking. This serves as an independent measure of glycation caused protein damage. […] To test this, reaction aliquots of the 5 day incubation mixtures, described in Example 1, supra, were assessed on 12% SDS-PAGE. Both untreated histone H1, and the aminoguanidine containing positive control were tested in the same way. All were visualized by silver staining.

[3] = system: He-Cat (human epidermal keratinocytes); assay: protection against α-dicarbonyl toxicity in keratinocytes, cell count; type: cell-based; conditions: for protection against growth inhibition by glyoxal: compound 1 mM added 15 minutes prior to glyoxal; for protection against growth inhibition by glyoxal / protection against methylglyoxal induced growth inhibition: 72 hours; for protection against methylglyoxal induced growth inhibition: compound 1 mM added 15 minutes prior to methylglyoxal
Procedure: (§1) Continuously cultured cell lines “He-Cat” (human epidermal keratinocytes), and “CF-3” (human dermal fibroblasts), were cultured under standard conditions, divided biweekly into DMEM containing 10% fetal bovine serum, and were kept in a humidified atmosphere containing 5% CO2 at 37° C. In order to divide the cells, 5% trypsin was used on the keratinocytes, and 1% trypsin was used on the fibroblasts.
(§2) Keratinocytes were seeded at 2×10^4 cells/well, and fibroblasts at 4×10^4 cells/well, using 6 well dishes. The cells were allowed to attach to the plate overnight. Either D-penicillamine or aminoguanidine (1 mM each) was added to the plates 15 minutes prior to addition of glyoxal or methylglyoxal. The α-dicarbonyl was left for 72 hours. Varying concentrations of the α-dicarbonyl were used. Cells were counted with a Coulter counter after 72 hours of stress. Cultures were also run where the glyoxal or methylglyoxal was used without the scavenger. L-alanine was used as a negative control as it was not expected to have protective effect.

[4] = system: CF-3 (human dermal fibroblasts); assay: protection against α-dicarbonyl toxicity in fibroblasts, cell count; type: cell-based; conditions: for protection against methylglyoxal induced growth inhibition: compound 1 mM added 15 minutes prior to methylglyoxal, 72 hours
Procedure: as §1, §2

[5] = system: histone H1 (carbonylation); assay: histone H1 carbonylation by reducing sugars, and interference by compounds; type: biochemical; conditions: compound 5 mM
Procedure: Both protein cross-linking and protein carbonylation are well established indicia of protein glycation. See Schacter, et al., Free Radic Biol Med. 17:429-437 (1994), incorporated by reference. In brief, following the assays described infra, formation of protein cross-linking was measured on 12% SDS-PAGE, followed by Coomassie and silver staining. Cross-linking was detectable with a high degree of sensitivity, when the reaction between ADP-ribose and histone H1 was carried out at pH 9.0. […] In FIG. 8, the abbreviations “M,” “D”, and “O” represent “monomer,” “dimer” and “oligomer,” respectively. Silver staining is the preferred way of determining the cross linking. Protein carbonlyation was determined via Western blotting. Specifically, AGE-BSA, which had been prepared by incubating BSA with 1.66M glucose, at pH 7.4 for 90 days at 37° C., was recognized after being derivatized with 2.4 dinitrophenlyhydrazine (“DNP”), when tested with antibodies specific for protein bound, DNP epitopes.
A series of experiments were carried out to compare different reducing sugars as glycation agents. In addition to ADP-ribose, ADP-glucose, D-ribose and D-glucose were tested. Briefly, histone H1 was combined with 1 mM of each sugar, and the mixture was incubated at pH 7.4. After 7 days of incubation, reaction aliquots were analyzed on 12% SDS-PACE gels, with silver staining. Results are presented in FIGS. 19A and B. In each of these, lane 1 is a control, with no sugar added, while lanes 2-5 show results using D-glucose, D-ribose, ADP-glucose, and ADP-ribose, respectively. […] The amount of carbonylation caused by ADP-ribose (0.82 mole/mole histone H1), and D-ribose (0.06 mole/mole histone H1) correlated with immunostaining.
In order to determine if the carbonylation of histone H1 by ADP-ribose involved an oxidative pathway, several compounds, known to interfere with glycoxidation of proteins by D-glucose were tested to determine if they interfered with this action by ADP-ribose. The compounds tested included 5 mM DTPA under argon, 5 mM aminoguanidine, 5 mM N^α acetyl L-cysteine, 5 mM mannitol, and 100 units/ml catalase.

[6] = α-dicarbonyl trapping, reaction with phenylglyoxal followed by HPLC
Procedure: To learn more about the reaction, D-penicillamine was reacted with phenylglyoxal. In the fashion described supra, phenylgyloxal, at final concentration of 10 mM, and D-penicillamine, at final concentration of 20 mM were reacted in 50 mM KH2PO4 buffer, pH 7.4, at room temperature. Reaction progress was monitored via HPLC analysis of reaction aliquots at 254 nm. After 40 minutes, more than 90% conversion of phenylgloxal peak into a single peak was observed. The product was obtained via preparative HPLC, was lyophilized, and analyzed by H-NMR spectroscopy.
Reactions were carried out in 10 mM phosphate buffer, pH 7.4, at 37° C., and were followed by HPLC analysis. Phenylglyoxal was used at a concentration of 50 mM, while D-penicillamine and aminoguanidine were used at concentrations of 250 mM, and 500 mM. The phenylglyoxal was used as a UV active, α-oxoaldehyde compound. Over the course of the reaction, aliquots were analyzed via HPLC. […] Initial reaction rates of phenylglyoxal and test compounds were monitored by following the disappearance of phenylglyoxal over time. […]
The measured, first order rate constant (k1st) was used to calculate the second order rate constant (k2nd), according to: […]
The calculated second order rate constants were determined at two reactant rates (5:1, and 10:1), and were in good agreement.

[7] = aldehyde trapping, reaction with phenylacetaldehyde followed by HPLC; conditions: same manner as phenylglyoxal
Procedure: Reactions were carried out in 10 mM phosphate buffer, pH 7.4, at 37° C., and were followed by HPLC analysis. Phenylglyoxal was used at a concentration of 50 mM, while D-penicillamine and aminoguanidine were used at concentrations of 250 mM, and 500 mM. The phenylglyoxal was used as a UV active, α-oxoaldehyde compound. Over the course of the reaction, aliquots were analyzed via HPLC. For reactions involving D-penicillamine, aliquots were taken at 20 second intervals and kept on dry ice for analysis. Initial reaction rates of phenylglyoxal and test compounds were monitored by following the disappearance of phenylglyoxal over time. D-penicillamine trapped phenylglyoxal more than 60 times faster than aminoguanidine. In order to determine if the α-oxo substitution had any impact on the progress of the aldehyde trapping reaction, the reactivity of D-penicillamine with the aldehyde corresponding to phenylglyoxal, i.e., phenylacetaldehyde, was carried out, in the same manner as is described herein.

[8] = increased concentration of D-penicillamine, methylglyoxal
[9] = treated with 6004M methylglyoxal (so in the source)

| SMILES | inhibition of AGE-fluorescence, in words [1] | AGE-fluorescence (day 5) ([1]; compound 1 mM) | % inhibition ([1]; compound 1 mM) | AGE-fluorescence (day 0) ([1]; compound 1 mM) | AGE-fluorescence (day 5) ([1]; compound 5 mM) | % inhibition ([1]; compound 5 mM) | AGE-fluorescence (day 0) ([1]; compound 5 mM) | AGE-fluorescence (day 5) ([1]; compound 10 mM) | % inhibition ([1]; compound 10 mM) | AGE-fluorescence (day 0) ([1]; compound 10 mM) | inhibition of histone H1 cross linking [2] | protection against growth inhibition by glyoxal [3] | protection against methylglyoxal induced growth inhibition [3] | protection against methylglyoxal induced growth inhibition [4] | other results |
| --- | --- | --- | --- | --- | --- | --- | --- | --- | --- | --- | --- | --- | --- | --- | --- |
| CC(C)(S)C(N)C(=O)O (racemic) [D,L-Penicillamine] | the best of the compounds tested | 13 (0.0) | 40% | 1.1 (0.2) | 2.7 (0.0) | 92% | 1.1 (0.1) | 1.7 (0.0) | 97% | 1.1 (0.1) | more potent than aminoguanidine | – | – | – | – |
| NC(=O)C1=CN([C@@H]2O[C@H](COP(=O)(O)OP(=O)(O)OC[C@H]3O[C@@H](n4cnc5c(N)ncnc54)[C@H](O)[C@@H]3O)[C@@H](O)[C@H]2O)C=CC1 [NADH] | – | – | – | – | 31 (0.0) | – | – | – | – | – | no inhibitory activity | – | – | – | – |
| N=C(N)NN [Aminoguanidine, aminoguanidine, reference compound] | – | 4.3 (0.2) | 84% | 1.2 (0.1) | 2.2 (0.0) | 96% | 1.2 (0.1) | 1.8 (0.0) | 97% | 1.3 (0.1) | – | appeared to protect keratinocytes against growth inhibition by glyoxal | rescued both cell lines from methylglyoxal induced growth inhibition in part | rescued both cell lines from methylglyoxal induced growth inhibition in part | suppression of AGE-fluorescence, primary screen outcome ([1]; test compound 5 mM or limit of solubility, pH 7.4, 37° C.): suppresses the glycation of histone H1 by ADP-ribose; interference with carbonylation of histone H1 by ADP-ribose [5]: slight effect |
| CC(C)(S)[C@@H](N)C(=O)O [D-Penicillamine, reference compound] | the best of the compounds tested | 11 (0.6) | 51% | 1.2 (0.0) | 2.9 (0.3) | 91% | 1.1 (0.1) | 1.4 (0.1) | 99% | 1.1 (0.0) | more potent than aminoguanidine | appeared to protect keratinocytes against growth inhibition by glyoxal | almost completely blocked methylglyoxal's toxicity | almost completely blocked methylglyoxal's toxicity | conversion of phenylglyoxal peak into a single peak ([6]; phenylglyoxal 10 mM, D-penicillamine 20 mM, 50 mM KH2PO4 pH 7.4, room temperature, after 40 minutes): more than 90%; rate of phenylglyoxal trapping relative to aminoguanidine ([6]; second order rate constants, 10 mM phosphate buffer pH 7.4, 37° C.): more than 60 times faster; efficiency of trapping phenylacetaldehyde relative to phenylglyoxal [7]: about 14 times less efficiently; dose range cyto-protective effect [3, 8]: increased protection; survival [3, 9]: 100%; dose range cyto-protective effect [4, 8]: increased protection; survival [4, 9]: 47% |
